This passage reports IC50 results from patent publication US6448269B1 (Eli Lilly and Company, priority 1993, dated 2002).

Assay [1] addresses T1, GPIIb-IIIa (Homo sapiens, UniProt P05106+P08514).
T1 construct: Purified platelet GPIIb-IIIa receptor was prepared as described by Fitzgerald; from tissue; host or cells: platelets
T1 sequence (P08514 32-887 limits assumed): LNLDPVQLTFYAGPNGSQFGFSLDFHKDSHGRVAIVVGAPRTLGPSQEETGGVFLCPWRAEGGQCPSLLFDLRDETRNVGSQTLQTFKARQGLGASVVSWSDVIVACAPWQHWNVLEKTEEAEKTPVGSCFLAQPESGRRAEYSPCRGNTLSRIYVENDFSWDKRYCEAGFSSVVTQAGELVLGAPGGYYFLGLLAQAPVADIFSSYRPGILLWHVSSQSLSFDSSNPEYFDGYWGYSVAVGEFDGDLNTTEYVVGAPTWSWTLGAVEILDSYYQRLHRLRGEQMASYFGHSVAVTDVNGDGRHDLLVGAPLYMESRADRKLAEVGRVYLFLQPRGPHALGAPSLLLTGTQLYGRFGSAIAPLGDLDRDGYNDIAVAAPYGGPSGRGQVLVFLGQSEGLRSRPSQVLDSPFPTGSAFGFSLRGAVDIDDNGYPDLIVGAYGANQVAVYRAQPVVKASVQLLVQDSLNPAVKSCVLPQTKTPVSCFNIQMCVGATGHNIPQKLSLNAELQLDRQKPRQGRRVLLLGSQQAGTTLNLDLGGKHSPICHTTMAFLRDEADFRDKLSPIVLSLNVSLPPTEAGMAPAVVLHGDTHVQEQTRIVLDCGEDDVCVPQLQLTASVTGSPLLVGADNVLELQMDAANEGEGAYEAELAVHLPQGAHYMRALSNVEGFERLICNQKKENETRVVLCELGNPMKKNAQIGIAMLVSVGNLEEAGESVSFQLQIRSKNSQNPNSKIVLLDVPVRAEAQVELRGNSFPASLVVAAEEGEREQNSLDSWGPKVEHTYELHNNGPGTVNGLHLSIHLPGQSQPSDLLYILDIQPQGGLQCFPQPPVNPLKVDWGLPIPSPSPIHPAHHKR
T1 sequence (P05106 27-788): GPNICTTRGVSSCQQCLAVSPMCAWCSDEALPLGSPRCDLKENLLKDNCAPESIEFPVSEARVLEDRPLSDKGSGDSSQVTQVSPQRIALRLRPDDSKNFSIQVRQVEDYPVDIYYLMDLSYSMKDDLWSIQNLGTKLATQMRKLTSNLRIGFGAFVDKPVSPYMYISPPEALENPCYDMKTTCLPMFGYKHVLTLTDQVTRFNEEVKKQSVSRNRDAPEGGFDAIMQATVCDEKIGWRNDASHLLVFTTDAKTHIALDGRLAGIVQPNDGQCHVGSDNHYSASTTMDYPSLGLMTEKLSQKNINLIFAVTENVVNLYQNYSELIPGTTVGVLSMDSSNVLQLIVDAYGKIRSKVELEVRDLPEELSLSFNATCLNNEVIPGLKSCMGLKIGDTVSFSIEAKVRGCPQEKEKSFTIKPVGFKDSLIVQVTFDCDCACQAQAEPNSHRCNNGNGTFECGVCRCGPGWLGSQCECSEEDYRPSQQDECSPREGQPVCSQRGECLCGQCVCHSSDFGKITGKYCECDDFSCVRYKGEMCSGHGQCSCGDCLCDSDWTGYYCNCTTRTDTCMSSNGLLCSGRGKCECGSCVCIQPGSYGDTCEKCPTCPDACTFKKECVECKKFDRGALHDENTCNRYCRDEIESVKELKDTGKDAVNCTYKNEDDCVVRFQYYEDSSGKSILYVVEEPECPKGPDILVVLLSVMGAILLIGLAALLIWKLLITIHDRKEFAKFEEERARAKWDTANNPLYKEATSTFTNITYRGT
Nature of the assay: ELISA IIb-IIIa assay (fibrinogen binding to immobilized GPIIb-IIIa). The note with it: purified platelet GPIIb-IIIa receptor coated on ELISA plates; biotin-labeled fibrinogen 10 nM, 3 hours at 25° C. The procedure: In the following assay, GPIIb-IIIa is prepared in purified form, by a method such as described by Fitzgerald, L. A., et al., Anal Biochem (1985) 151:169-177, (the disclosure of which is incorporated herein by reference). GPIIb-IIIa is coated onto microtiter plates. The coated support is then contacted with fibrinogen and with the test material (e.g., compounds of Formula I) and incubated for a sufficient time to permit maximal binding of fibrinogen to the immobilized GPIIb-IIIa. Fibrinogen is typically provided at a concentration of about 5-50 nM and the test material can, if desired, be added at a series of dilution. Typical incubations are 2 to 4 hours at 25° C., the time and temperature being interdependent.
After incubation, the solution containing the fibrinogen and test material is removed and the level of binding of fibrinogen measured by quantitating bound fibrinogen to GPIIb-IIIa. Any suitable means of detection may be used, but it is convenient to employ labeled fibrinogen, for example using biotinylated labels. Such methods are well known in the art.
Purified platelet GPIIb-IIIa receptor was prepared as described by Fitzgerald, L. A., et al., Anal Biochem (1985) 151:169-177 (1985). Vitronectin receptor was prepared as described by Smith, J. W., J. Biol Chem (1988) 263:18726-18731. After purification, the receptors were stored in 0.1% Triton X-100 at 0.1-1.0 mg/ml.
The receptors were coated to the wells of 96-well flat-bottom ELISA plates (Linbro EIA-Plus microtiter plate, Flow Laboratories) after diluting 1:200 with a solution of 20 mM Tris-HCl, 150 mM NaCl, 1 mM CaCl2, pH 7.4, to reduce the Triton X-100 concentration to below its critical micellar concentration and adding an aliquot of 100 ul to each well. The wells were all allowed to incubate overnight at 4° C., and then aspirated to dryness. Additional sites were blocked by the addition of bovine serum albumin (BSA) at 35 mg/ml in the above buffer for 2 hours at 30° C. to prevent nonspecific binding. The wells were then washed once with binding buffer ([…] Tris-HCl, 100 mM NaCl 2 mM CaCl2, 1 mg/ml BSA).
The corresponding ligands (fibrinogen, von Willebrand Factor, or vitronectin) were conjugated to biotin using commercially available reagents and standard protocols. The labeled ligands were added to the receptor-coated wells at final concentration of 10 nM (100 ul/well) and incubated for 3 hours at 25° C. in the presence or absence of the test samples. After incubation, the wells are aspirated to dryness and bound ligand is quantitated.
The bound protein is detected by the addition of antibiotin antibody conjugated to alkaline phosphatase followed by addition of substrate (p-nitrophenyl phosphate), and determination of the optical density of each well at […]. Decreased color development is observed in wells incubated with test samples which inhibit binding of ligand to receptor.

In assay [2] the test system is human platelet-rich plasma. The assay can be described thus: Platelet aggregation assay (Aggregation-Human PRP/ADP). Conditions: 1 min; human platelet-rich plasma incubated with compound 1 minute at 37° C.; ADP-induced aggregation; read-out: Agg: Human PRP/ADP IC50uM. It counts as cell-based. The procedure: Platelet-rich plasma was prepared from healthy human volunteers for use in determining inhibition of platelet aggregation by the compounds.
Platelet-rich plasma was prepared at room temperature by centrifugation of the citrated whole blood at 100×g for 12 minutes. The platelet rich plasma contained approximately 200-400,000 platelets/μl.
Platelet-poor plasma was prepared by centrifugation of citrated whole blood at 12,000×g for 2 minutes.
Platelet aggregation was assayed in a 4-channel platelet aggregation profiler (PAP-4, Biodata, Hatboro, Pa.) according to the manufacturers directions. Inhibition of platelet aggregation was studied by adding varying amounts of […] to stirred human platelet-rich plasma. Specifically, the human platelet-rich plasma was incubated with the compound being tested for 1 minute at 37° C. prior to the addition of a variety of aggregating agents most often ADP 5 μM, but also 1 μg/ml collagen, 1 μM U46619 and 0.3 μM platelet activating factor.

Structures can show the parent of a compound that is named as a salt. A value given as a limit tells only on which side of the number the result lay.

For `O=C(O)CC1CCc2cc(OCCC3CCNCC3)ccc2O1` (racemic) [Example 61, rac-(3,4-Dihydro-6-(2-(piperidin-4-yl)ethoxy)-2H-1-benzopyran-2-yl)acetic Acid Trifluoroacetate], the IC50 in assay [1] was above 1000 nM; in assay [2], 100 µM.

For the compound `N=C(N)c1ccc(C(=O)Nc2ccc3c(c2)CCC(CC(=O)O)O3)c(F)c1` (racemic) [Example 70, rac-(6-(N-(4-(Aminoiminomethyl)-2-fluorobenzoyl)amino)-3,4-dihydro-2H-1-benzopyran-2-yl)acetic Acid], the IC50 in assay [1] worked out at 1.3 nM; in assay [2] it was 0.082 µM.

Regarding `O=C(O)COC1CCc2cc(OCCCC3CCNCC3)ccc2C1` (centres unmarked) [Example 24], the IC50 in assay [1] stood at 760 nM; in assay [2], 6.5 µM.

As for `N=C(N)c1ccc(COc2ccc3c(c2)CCN(CC(=O)O)C3)cc1` [Example 35], the values for the IC50 in assay [1] and in assay [2] were 30 nM and 0.33 µM, respectively.

For the compound `N=C(N)c1ccc(C(=O)Nc2ccc3c(c2)CCC(/C=C/C(=O)O)C3)cc1` (centres unmarked) [Example 37], the figures for the IC50 in assay [1] and in assay [2] were 100 nM and 4.4 µM, respectively.

Regarding `N=C(N)c1ccc(C(=O)Nc2ccc3c(c2)CCC(OCC(=O)O)C3)cc1` (centres unmarked) [Example 29], the IC50 in assay [1] was 15 nM; in assay [2], 0.28 µM.

In the case of `CCC(CC(=O)O)N1CCc2cc(OCc3ccc(C(=N)N)cc3)ccc2C1=O` (racemic) [Example 14, (+−)-6-[[4-(Aminoiminomethyl)phenyl]methoxy]b-ethyl-3,4-dihydro-1-oxo-2(1H)-isoquinoline Propanoic Acid Trifluoroacetate], the IC50 in assay [1] is 45 nM; in assay [2], 0.4 µM.

Turning to `CCCCCC(CC(=O)O)N1CCc2cc(OCc3ccc(C(=N)N)cc3)ccc2C1=O` (racemic) [Example 12, (+−)-6-[[4-(Aminoiminomethyl)phenyl]methoxyl]-3,4-dihydro-1-oxo-b-pentyl-2(1H)-isoquinolinepropanoic Acid Trifluoroacetate], the IC50 worked out at 24 nM in assay [1] and 0.57 µM in assay [2].

Turning to `CCCCC(CC(=O)O)N1CCc2cc(OCc3ccc(C(=N)N)cc3)ccc2C1=O` (racemic) [Example 11, (+−)-6-[[4-(Aminoiminomethyl)phenyl]methoxy]-b-butyl-3,4-dihydro-1-oxo-2(1H)-isoquinoline Propanoic Acid Trifluoroacetate], the IC50 in assay [1] was 40 nM; in assay [2], 0.6 µM.

For the compound `N=C(N)CCCCCOc1ccc2c(c1)CCC(CC(=O)O)O2` (racemic) [Example 55, rac-(6-(5-(Aminoiminomethyl)pentoxy)-3,4-dihydro-2H-1-benzopyran-2-yl)acetic Acid Trifluoroacetate], the IC50 is 3460 nM in assay [1] and above 100 µM in assay [2].

For `CCOC(=O)CC1CCc2cc(NC(=O)c3ccc(C(=N)NC(=O)OC)cc3F)ccc2O1` (racemic) [Example 88, Ethyl rac-(3,4-Dihydro-6-(N-(2-fluoro-4-((methoxycarbonylamino)iminomethyl)benzoyl)amino)-2H-1-benzopyran-2-yl)acetate], the results for the IC50 in assay [1] and in assay [2] were 99 nM and 0.084 µM, respectively.

`CNC(=N)c1ccc(C(=O)Nc2ccc3c(c2)CCC(CC(=O)O)O3)cc1` (racemic) [Example 58, rac-(3,4-Dihydro-6-(N-(4-((methylamino)iminomethyl)benzoyl)amino)-2H-1-benzopyran-2-yl)acetic Acid]: the IC50 in assay [1] is 33.4 nM; in assay [2], 0.28 µM.

As to `N=C(N)c1cccc(C#Cc2ccc3c(c2)CCN(CC(=O)O)C3=O)c1` [Example 17, 6-[[3-(Aminoiminomethyl)phenyl]ethynyl]-3,4-dihydro-1-oxo-2(1H)-isoquinoline Acetic Acid Trifluoroacetate], the figures for the IC50 in assay [1] and in assay [2] were 45000 nM and above 100 µM, respectively.

With `N=C(N)Nc1ccc(C(=O)Nc2ccc3c(c2)CCC(CC(=O)O)O3)cc1` (racemic) [Example 65, rac-(6-(N-(4-((Aminoiminomethyl)amino)benzoyl)amino)-3,4-dihydro-2H-1-benzopyran-2-yl)acetic Acid], the IC50 was determined as 180 nM in assay [1] and 4.8 µM in assay [2].

As to `N=C(N)c1ccc(COc2ccc3c(c2)CCN(CC(=O)O)C3=O)cc1` [Example 1, 6-[[4-(Aminoiminomethyl)phenyl]methoxy]-3,4-dihydro-1-oxo-2(1H)-isoquinoline Acetic Acid Trifluoroacetate], the IC50 in assay [1] amounted to 600 nM; in assay [2] it was 20 µM.

Consider `CCCC(CC(=O)O)N1CCc2cc(OCc3ccc(C(=N)N)cc3)ccc2C1=O` (racemic) [Example 15, (+−)-6-[[4-(Aminoiminomethyl)phenyl]methoxy]-3,4-dihydro-1-oxo-b-propyl-2 (1H)-isoquinoline Propanoic Acid Trifluoroacetate], for which the IC50 came to 500 nM in assay [1] and 0.23 µM in assay [2].
